Molecules are shown by their SMILES. Like-named read-outs stand apart in the source and are kept apart here.

The values below come from patent publication EP0367747A2, “Dideoxy-L-arabinitol derivatives as antiviral compounds” (G.D. Searle & Co., priority 1988, dated 1990).

Series [1] deals with almond beta-glucosidase. The series can be described thus: Beta-glucosidase inhibition assay, pH 7.4 (p-nitrophenol release). The class given is biochemical. Particulars: for β-Glucosidase pH 7.4 % Inhibition: Table 5, at 1.0 mM. The procedure:
(§1) Yeast alpha-glucosidase and almond beta-glucosidase activities were measured by a modification of the method of Evans, et al., Phytochemistry 22, 768-770 (1983). The modifications included 1) assay of activities at pH 7.4 in HEPES (N-2-hydroxyethylpiperazine-N′-2-ethanesulfonic acid) buffer, 2) measurement in 96 well microtiter plates and 3) inclusion of 10% DMSO in control and test samples. The release of p-nitrophenol from the substrate p-nitrophenylglycoside was measured spectrophotometrically in the presence and absence of test compound. Each assay included a known inhibitor of the enzyme as a standard. IC₅₀ values were determined for compounds which inhibited the enzymes more than 50% at a 1 millimolar concentration. To 100 µl 50 mM HEPES buffer, pH 7.4, in a microtiter plate, add 20 µl test compound in DMSO (DMSO alone in control), 40 µl (0.136 units) beta-glucosidase (Sigma) in HEPES buffer and pre-incubate at room temperature for 15 minutes. […] Absorption change was measured at 15 to 25 minutes (reaction is linear for at least 30 minutes). Each sample was tested in triplicate. IC₅₀ values were determined from the linear portion of the log concentration vs % inhibition curve obtained from a minimum of 3 points. Castanospermine was used as standard inhibitor.

A further series has as its target T1, Yeast alpha-glucosidase (Saccharomyces cerevisiae, UniProt P53341).
T1 construct: purchased Sigma
The series can be described thus: Alpha-glucosidase inhibition assay, pH 7.4 (p-nitrophenol release). The series is classed as biochemical. The method, then: as §1, with “µl (0.013” for “µl (0.136”, “units) yeast alpha-glucosidase” for “units) beta-glucosidase”, “(reaction was” for “(reaction is”, “points. Deoxynojirimycin” for “points. Castanospermine”

For series [2], the system named is almond beta-glucosidase. The series can be described thus: Beta-glucosidase inhibition assay, pH 4.8 (p-nitrophenol release). The series is classed as biochemical. The note with it: for β-Glucosidase pH 4.8 % Inhibition: Table 5, at 1.0 mM. The procedure:
Yeast alpha-glucosidase and almond beta-glucosidase activities were measured by a modification of the method of Evans, et al., Phytochemistry 22, 768-770 (1983). The modifications included 1) assay of activities at pH 7.4 in HEPES (N-2-hydroxyethylpiperazine-N′-2-ethanesulfonic acid) buffer, 2) measurement in 96 well microtiter plates and 3) inclusion of 10% DMSO in control and test samples. The release of p-nitrophenol from the substrate p-nitrophenylglycoside was measured spectrophotometrically in the presence and absence of test compound. Each assay included a known inhibitor of the enzyme as a standard. IC₅₀ values were determined for compounds which inhibited the enzymes more than 50% at a 1 millimolar concentration. To 100 µl 50 mM sodium citrate buffer, pH 4.8, in a microtiter plate, add 15 µl test compound in DMSO (DMSO alone in control), 20 µl (.017 units) beta-glucosidase (Sigma) in citrate buffer and pre-incubate at room temperature for 15 minutes. Add 25 µl 2.50 mM p-nitrophenyl-beta-D-glucopyranside in citrate buffer, as substrate. Incubate at room temperature 20 minutes (reaction is linear for at least 30 minutes). Add 50 µl 0.4 M NaOH. Read absortion change at 405 nm in a Biotek EIA Autoreader. Each sample was tested in triplicate. IC₅₀ values were determined from the linear portion of the log concentration vs % inhibition curve obtained from a minimum of 3 points. Castanospermine was used as standard inhibitor.

Series [3] deals with Sheep choroid plexus(SCP) cells. Briefly: Toxicity of compounds in control wells without virus, graded morphologically 0 to 4. The series is classed as cell-based. Also noted: key: 0 = no toxicity; 4 = total cell lyses. The note with it: 0 to 4 scale. The procedure:
(§2) SCP cells were cultured in 6-well plates to confluence. Wells were washed two times with serum free Minimal Essential Medium (MEM) to remove FBS. 0.2ml of virus was added per well in MEM supplemented with 4mM glutamine and gentamycin. After 1 hour adsorption, the virus was aspirated from each well. The appropriate concentration of each compound in 5 ml of Medium 199 (M-199) supplemented with 2% lamb serum, 4mM glutamine, 0.5% agarose and gentamycin was added to each well. Cultures were incubated at 37°C in a humidified 5% CO₂ incubator for 3-4 weeks. To terminate the test: cultures were fixed in 10% formalin, the agar removed, the monolayers stained with 1% crystal violet and plaques counted. Each compound concentration was run in triplicate. […] 0 is no toxicity observed while 4 is total lysing of the cell monolayer.
Control wells without virus were completed to determine the toxicity of compounds.

A further series deals with visna virus. The series can be described thus: Inhibition of visna virus in vitro (plaque reduction assay / 96 well plate assay) in SCP cells. The class given is cell-based. The note with it: for inhibition at 1 µM / inhibition at 10 µM / inhibition at 100 µM / inhibition at 1000 µM / EC50: Visna-maedi virus; for inhibition at 1 µM: Concentration 0.001 mM; for inhibition at 10 µM: Concentration 0.01 mM; for inhibition at 100 µM: Concentration 0.1 mM; for inhibition at 1000 µM: Concentration 1.0 mM; for EC50: inhibition of visna virus, read-out: EC₅₀; for Antiviral Activity: Table 4. Also noted: key to Antiviral Activity: A = active compound; I = inactive. The procedure:
Various compounds as prepared above were tested for inhibition of visna virus in vitro in a plaque reduction assay as follows:
Sheep choroid plexus(SCP) cells were obtained from American Type Culture Collection (ATCC) catalogue number CRL 1700 and were routinely passaged in vitro in Dulbecco's Modified Eagles (DME) medium supplemented with 20% fetal bovine serum (FBS). SCP cells were passaged once per week at a 1:2 or 1:3 split ratio. Visna was titrated by plaque assay in six-well plates. Virus pools were stored at -70°C.
as §2
The 96 well plate assay was performed similarly to the plaque assay above with modifications. SCP cells were seeded at 1 x 10⁴ cells per well in 0.1 ml DME medium. When confluent, the wells were washed with serum free MEM and 25ul of virus added in M-199 supplemented with 2% lamb serum. After 1 hour, 75uL of medium containing test compound was added to each well containing virus. After 2-3 weeks incubation the cytopathic effect of the virus was determined by staining with a vital stain. Cell viability was measured by determining stain density using a 96 well plate reader.
On the technique in general: Plaque reduction counts the foci of infection that form in a cell layer.

[4] abbreviates: Table 5, values marked *, read-out: α-Glucosidase IC₅₀.
Where [5] appears, read: Table 3, pH 7.4, read-out: α-glucosidase IC₅₀.

T1 sequence (P53341 whole entry): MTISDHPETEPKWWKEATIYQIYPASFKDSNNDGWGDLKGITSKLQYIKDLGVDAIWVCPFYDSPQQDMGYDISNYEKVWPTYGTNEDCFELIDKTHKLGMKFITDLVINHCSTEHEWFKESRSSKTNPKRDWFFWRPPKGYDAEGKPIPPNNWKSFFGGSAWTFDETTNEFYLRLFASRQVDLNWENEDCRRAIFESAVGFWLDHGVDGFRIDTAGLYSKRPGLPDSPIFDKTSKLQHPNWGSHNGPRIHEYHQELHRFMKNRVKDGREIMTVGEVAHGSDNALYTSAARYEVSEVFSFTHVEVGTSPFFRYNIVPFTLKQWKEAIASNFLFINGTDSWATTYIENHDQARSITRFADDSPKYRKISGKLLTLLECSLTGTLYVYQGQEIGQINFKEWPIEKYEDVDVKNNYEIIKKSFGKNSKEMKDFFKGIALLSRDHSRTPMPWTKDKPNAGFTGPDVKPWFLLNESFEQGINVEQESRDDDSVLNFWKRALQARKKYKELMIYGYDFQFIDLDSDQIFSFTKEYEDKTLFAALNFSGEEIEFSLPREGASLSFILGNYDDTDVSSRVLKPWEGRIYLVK

Consider `OCCN1C[C@H](O)[C@@H](O)[C@@H]1CO` [Example 2, 1,4-Dideoxy-1,4-([2-hydroxyethyl]imino)-L-arabinitol], for which the “β-Glucosidase pH 7.4 % Inhibition” value in the series on almond beta-glucosidase [1] was 45%. The IC50 on Yeast alpha-glucosidase (setting [4]) turned out to be 178 µM. The “β-Glucosidase pH 4.8 % Inhibition” value in the series on almond beta-glucosidase [2] is given as 14%. Also, the Toxicity is 0 in series [3] (Table 4, 0.01 mM Concn.) and 0 in series [3] (Table 4, 0.1 mM Concn.).

In the case of `CCCCN1CC(O)C(O)C1CO` [Example 4, 1,4-(Butylimino)-1,4-dideoxy-L-arabinitol], in the series with almond beta-glucosidase [1], the “β-Glucosidase pH 7.4 % Inhibition” value was 26%. Besides, the IC50 at Yeast alpha-glucosidase (setting [4]) stood at 227 µM. Moreover, the “β-Glucosidase pH 4.8 % Inhibition” value in the series with almond beta-glucosidase [2] is 20%. Also, the Toxicity in series [3] (Table 4, 0.01 mM Concn.) is 0; in series [3] (Table 4, 0.1 mM Concn.), 0; in series [3] (Table 4, 1.0 mM Concn.), 0.

With `CCCCN1C[C@H](OC(C)=O)[C@@H](OC(C)=O)[C@@H]1COC(C)=O` [Example 5, 1,4-(Butylimino)-1,4-dideoxy-L-arabinitol, triacetate], in the series with visna virus, the inhibition at 1 µM amounted to 9%, the inhibition at 10 µM was found to be 10%, the inhibition at 100 µM was found to be 10% and the inhibition at 1000 µM was determined as 83%. The same molecule came in with a Toxicity in series [3] (Concentration 0.001 mM) of 0. The same molecule came in with a Toxicity in series [3] (Concentration 0.01 mM) of 0. For the same molecule, the Toxicity in series [3] (Concentration 0.1 mM) turned out to be 0. The same molecule had a Toxicity in series [3] (Concentration 1.0 mM) of 0.

`CCCCCCN1CC(O)C(O)C1CO` [Example 6, 1,4-(Hexylimino)-1,4-dideoxy-L-arabinitol]: the EC50 in the series on visna virus was 125 µM. Moreover, the IC50 on Yeast alpha-glucosidase (setting [5]) was found to be 35 µM.

As for `CCCCCCN1C[C@H](OC(C)=O)[C@@H](OC(C)=O)[C@@H]1COC(C)=O` [Example 7, 1,4-(Hexylimino)-1,4-dideoxy-L-arabinitol, triacetate], the “Antiviral Activity” value in the series with visna virus (0.01 mM Concn.) and with visna virus (0.1 mM Concn.) was “A” throughout. The Toxicity in series [3] (Table 4, 0.01 mM Concn.) was determined as 0; in series [3] (Table 4, 0.1 mM Concn.), 2; in series [3] (Table 4, 1.0 mM Concn.) it was 4.

For the molecule `OC[C@H]1[C@H](O)[C@@H](O)CN1Cc1ccc(Cl)cc1` [Example 8, 1,4-([4-Chlorophenyl]methylimino)-1,4-dideoxy-L-arabinitol], the IC50 is above 1000 µM on almond beta-glucosidase [1] (Table 3, at pH 7.4, read-out: β-glucosidase IC₅₀); 2.2 µM at Yeast alpha-glucosidase (setting [5]); above 1000 µM on almond beta-glucosidase [2] (Table 3, at pH 4.8, read-out: β-glucosidase IC₅₀). In addition, the “β-Glucosidase pH 7.4 % Inhibition” value in the series on almond beta-glucosidase [1] was 26%. Further, the “β-Glucosidase pH 4.8 % Inhibition” value in the series on almond beta-glucosidase [2] was 19%. Moreover, the Toxicity in series [3] (Table 4, 0.01 mM Concn.) is on record as 0; in series [3] (Table 4, 1.0 mM Concn.) it was 3.

Take `CCc1ccc(CN2C[C@H](O)[C@@H](O)[C@@H]2CO)cc1` [Example 9, 1,4-([4-Ethylphenyl]methylimino)-1,4-dideoxy-L-arabinitol]: in the series on visna virus, the EC50 stood at 100 µM.

Turning to `CCc1ccc(CN2C[C@H](OC(C)=O)[C@@H](OC(C)=O)[C@@H]2COC(C)=O)cc1` [Example 10, 1,4-([4-Ethylphenyl]methylimino)-1,4-dideoxy-L-arabinitol, triacetate], the Toxicity in series [3] (Table 4, 0.01 mM Concn.) turned out to be 1; in series [3] (Table 4, 0.1 mM Concn.) it was 1; in series [3] (Table 4, 1.0 mM Concn.) it was 4.

With `CC(=O)OCCCCCN1C[C@H](OC(C)=O)[C@@H](OC(C)=O)[C@@H]1COC(C)=O` [Example 15, 1,4-([5-Acetyloxypentyl]imino)-1,4-dideoxy-L-arabinitol, triacetate], the EC50 with visna virus was 100 µM.

For the molecule `O=C(OCc1ccccc1)N1C[C@H](O)[C@@H](O)[C@@H]1CO` [Example 17, 1,4-(Benzyloxycarbonylimino)-1,4-dideoxy-L-arabinitol], the “β-Glucosidase pH 7.4 % Inhibition” value in the series on almond beta-glucosidase [1] is 4%. In addition, on Yeast alpha-glucosidase (setting [4]), the IC50 was 482 µM. Also, in the series on almond beta-glucosidase [2], the “β-Glucosidase pH 4.8 % Inhibition” value is recorded as 4%.

Consider `CCCC(=O)OC[C@@H]1NC[C@H](OC(=O)CCC)[C@H]1OC(=O)CCC` [Example 23, 1,4-Imino-1,4-dideoxy-L-arabinitol, tributyrate], for which the EC50 in the series on visna virus was determined as 1 µM.

For `CC(C)C(=O)OC[C@H]1[C@H](OC(=O)C(C)C)[C@@H](OC(=O)C(C)C)CN1C(=O)OCc1ccccc1` [Example 24, 1,4-(Benzyloxycarbonylimino)-1,4-dideoxy-L-arabinitol, triisobutyrate], the “β-Glucosidase pH 7.4 % Inhibition” value in the series with almond beta-glucosidase [1] turned out to be 1%. On Yeast alpha-glucosidase (setting [4]), the IC50 is 33 µM. Besides, the “β-Glucosidase pH 4.8 % Inhibition” value in the series with almond beta-glucosidase [2] was 7%.

In the case of `CC(=O)OC[C@H]1[C@H](OC(C)=O)[C@@H](OC(C)=O)CN1C(=O)c1ccccc1` [Example 27, 1,4-(Benzoylimino)-1,4-dideoxy-L-arabinitol, triacetate], the inhibition at 1000 µM at Yeast alpha-glucosidase (Table 3, at 1 mM, read-out: α-glucosidase Inhibitory Activity) came out at 23%.

In the case of `CCC(=O)N1C[C@H](OC(C)=O)[C@@H](OC(C)=O)[C@@H]1COC(C)=O` [Example 31, 1,4-(Propionylimino)-1,4-dideoxy-L-arabinitol, triacetate], the Toxicity in series [3] (Table 4, 0.1 mM Concn.) came out at 1; in series [3] (Table 4, 1.0 mM Concn.) it was 3.

Regarding `CCCCN1C[C@H](O)[C@@H](O)[C@H](O)[C@H]1CO` [N-Bu-DNJ, N-butyl derivative of 1,5-dideoxy-1,5-imino-D-glucitol, reference compound], the inhibition at 1 µM in the series on visna virus was -74%. In the series on visna virus, the inhibition at 10 µM stood at 13%. Also, in the series with visna virus, the inhibition at 100 µM came out at 100%. For the same molecule, the inhibition at 1000 µM with visna virus amounted to 100%. Besides, the Toxicity in series [3] (Concentration 0.001 mM) is on record as 0; in series [3] (Concentration 0.01 mM), 0; in series [3] (Concentration 0.1 mM), 1; in series [3] (Concentration 1.0 mM) it was 2.
